From patent US20090227617A1, “Esters Of Glucuronide Prodrugs Of Anthracyclines And Method Of Preparation And Use In Tumor-Selective Chemotherapy” (Pharmachemie B.V., priority 2008, published 2009)
Read-outs that look alike come from different tables or passages of the source.

Tests used:
OVCAR-3 cells = experiment: In vitro antiproliferative effects in OVCAR-3 cells (crystal violet assay), with or without bovine beta-glucuronidase (GUS); type: cell-based, human; settings: for IC50: 3 days incubation; for toxicity compared with doxorubicin: in the presence of GUS
Protocol: The toxicity of the prodrugs was tested with OVCAR-3 cells. The cells were incubated for 3 days with the different prodrugs DOX-alGA3, DOX-mPEG4-GA3, DOX-mPEG7-GA3, and for comparison also with Doxorubicin, in fetal bovine serum (FBS), in the presence or absence of bovine beta-glucuronidase (GUS).
The concentrations used for the prodrugs ranged from 0.001 μM to 50 μM.
In vitro antiproliferative effects in OVCAR-3 cells after 3 days of incubation with the different (pro)-drugs DOX, DOX-alGA3, DOX-mPEG4-GA3 and DOX-mPEG7-GA3 in the presence or absence of bovine beta-glucuronidase(GUS).
The concentrations used for the prodrugs ranged from 0.001 μM to 50 μM, the GUS enzyme was added to give a final concentration of 10 units/μl. Adjacent to this, cells treated with the prodrugs were incubated without GUS. Incubation was conducted at 37° C. in a humidified, 5% CO2 incubator of three days. Cell growth is measured by crystal violet assay, untreated cells are set at 100%. The IC50 values found in these experiments are depicted in the table beneath.
The human ovarian cancer (OVCAR3) cell line was maintained in DMEM supplemented with 10% heat inactivated FBS and 1% P/S. Inhibition of proliferation of the OVCAR cell line by the doxorubicin prodrugs Dox-allyl, Dox-mGA3, Dox-mPEG4 and Dox-mPEG7 was determined using a crystal violet assay. The assay was preformed in a 96-wells plate. Cells that were harvested by trypsinisation were seeded with 5.000 cells in 100 μl medium per well. The 96-wells plate was incubated overnight at 37° C. in a humidified, 5% CO2 incubator. The different prodrugs were added in concentrations between 0.001 μM to 50 μM. Subsequently, the GUS enzyme was added to give a final concentration of 10 units/μl. This mixture was incubated at 37° C. in a humidified, 5% CO2 incubator for tree days. Subsequently, the cells were stained and fixed with 50 μl 1% crystal violet in 70% ethanol. The cells were washed with water and resolubilized in 100 μl 1% SDS. After this the absorbance was read at 550 nm. The blank extinction values were determined on wells in which no cells were seeded were subtracted from the signals. Inhibition concentrations 50% (IC50) were derived by plotting the inhibition of cell proliferation at different concentrations of the prodrug and non-linear curve fitting.

Solubility in water = type: physicochemical
Protocol: For DOX-triazol ester 1 (DOX-mPEG4GA3) about 0.6 mg prodrug dissolve in 1 ml of water whereas for DOX-mPEG7GA3 already 2.5 mg dissolve in 1 ml of water and for DOX-mPEG12GA3 this has reached more than 15 mg in 1 ml of water.

tumor bearing mice = settings: based on 10% weight loss, i.v.; cited from earlier work
[1] = tumor bearing mice, half of the MTD; cited from earlier work
carboxyl esterases [2] = settings: human plasma; cited from earlier work
[3] = cited from earlier work
[4] = Hydrolysis of prodrug esters in phosphate buffer pH 7.33, followed by reverse phase TLC; type: physicochemical; settings: phosphate buffer pH=7.33, room temperature
Text: hydrolyze faster than alkyl esters like DOX-mGA3 due to the better leaving ability of the ester group of 1. This is caused by the electron-withdrawing properties of the triazol functionality. Indeed in a phosphate buffer with pH=7.33 it took 24 hrs at room temperature before DOX-mGA3 was completely hydrolyzed. The DOX derivatives of 1 with n=7 or 12 and x=1 (DOX-mPEG7GA3 and DOX-mPEG12GA3) were, nevertheless, already hydrolyzed within 4 hrs under these circumstances.
The hydrolysis of the DOX esters were qualitatively followed with reverse phase TLC (RP18). With eluens acetonitril/water: 42/58 in a phosphate buffer (KH2PO4/Na2HPO4) of pH=7.33.
DOX-mGA3 0.29 mg was dissolved in 1 ml of buffer together with some drops of DMSO to keep the DOX-mGA3 dissolved. It took 24 hrs before the starting compound had disappeared.
In the same way the hydrolysis of DOX-triazol esters 1 (n=, 7 and 12, x=1) were followed for 0.35 mg/ml and 0.45 mg/ml buffer. Both esters were completely hydrolyzed within 4 hrs.

[5] = has to be administered in a vehicle containing Cremophore EL; cited from earlier work
carboxyl esterases [6] = settings: mouse plasma; cited from earlier work
[7] = bovine beta-glucuronidase 10 units/μL, read-out: IC50 (M) with GUS (10 units/μL)
[8] = no GUS, read-out: IC50 (M) No GUS

| Compound | IC50 (OVCAR-3 cells; [7]) | IC50 (OVCAR-3 cells; [8]) | toxicity compared with doxorubicin (OVCAR-3 cells) | solubility in water (Solubility in water) | also measured |
| --- | --- | --- | --- | --- | --- |
| COCCOCCOCCOCCOCCOCCOCCn1cc(COC(=O)C2OC(OC(=O)Nc3ccc(COC(=O)NC4CC(OC5CC(O)(C(=O)CO)Cc6c(O)c7c(c(O)c65)C(=O)c5c(OC)cccc5C7=O)OC(C)C4O)cc3)C(O)C(O)C2O)nn1 (centres unmarked) [DOX-mPEG7-GA3] | 7.74e-08 M | 8.33e-06 M | slightly less toxic | 2.5 mg in 1 ml of water | – |
| COc1cccc2c1C(=O)c1c(O)c3c(c(O)c1C2=O)C[C@@](O)(C(=O)CO)C[C@@H]3O[C@H]1C[C@H](N)[C@H](O)[C@H](C)O1 [DOX, doxorubicin, reference compound] | – | 6.19e-08 M | – | – | maximum tolerated dose (MTD) (tumor bearing mice): 8 mg/kg |
| COCCOCCOCCOCCOCCOCCOCCOCCOCCOCCOCCOCCn1cc(COC(=O)C2OC(OC(=O)Nc3ccc(COC(=O)NC4CC(OC5CC(O)(C(=O)CO)Cc6c(O)c7c(c(O)c65)C(=O)c5c(OC)cccc5C7=O)OC(C)C4O)cc3)C(O)C(O)C2O)nn1 (centres unmarked) [DOX-mPEG12GA3] | – | – | – | more than 15 mg in 1 ml of water | – |
| COCCOCCOCCOCCn1cc(COC(=O)C2OC(OC(=O)Nc3ccc(COC(=O)NC4CC(OC5CC(O)(C(=O)CO)Cc6c(O)c7c(c(O)c65)C(=O)c5c(OC)cccc5C7=O)OC(C)C4O)cc3)C(O)C(O)C2O)nn1 (centres unmarked) [DOX-mPEG4-GA3] | 6.21e-08 M | 2.21e-05 M | comparable toxicity as doxorubicin | about 0.6 mg in 1 ml of water | – |
| COc1cccc2c1C(=O)c1c(O)c3c(c(O)c1C2=O)CC(O)(C(=O)CO)CC3OC1CC(NC(=O)OCc2ccc(NC(=O)OC3OC(C(=O)O)C(O)C(O)C3O)cc2)C(O)C(C)O1 (centres unmarked) [DOX-GA3] | – | – | – | – | concentrations of doxorubicin in plasma versus administration of doxorubicin [1]: significantly lower concentrations of doxorubine in plasma; concentrations of doxorubicin in tumor tissue versus administration of doxorubicin [1]: higher; maximum tolerated dose (MTD) (tumor bearing mice): approximately 500 mg/kg |
| COC(=O)C1OC(OC(=O)Nc2ccc(COC(=O)NC3CC(OC4CC(O)(C(=O)CO)Cc5c(O)c6c(c(O)c54)C(=O)c4c(OC)cccc4C6=O)OC(C)C3O)cc2)C(O)C(O)C1O (centres unmarked) [DOX-mGA3] | – | – | – | – | half time of conversion to DOX-GA3 (carboxyl esterases [2]): ~2.5 h; pharmacokinetics in mice (in words) [3]: improved pharmacokinetics; time until completely hydrolyzed [4]: 24 h; solubility in water (in words, background) [5]: very bad solubility in water; solubility in water (in words) (Solubility in water): completely insoluble in water; half time of conversion to DOX-GA3 (carboxyl esterases [6]): approximately 05 min |
| C=CCOC(=O)C1OC(OC(=O)Nc2ccc(COC(=O)NC3CC(OC4CC(O)(C(=O)CO)Cc5c(O)c6c(c(O)c54)C(=O)c4c(OC)cccc4C6=O)OC(C)C3O)cc2)C(O)C(O)C1O (centres unmarked) [DOX-alGA3] | 5.84e-08 M | 9.81e-06 M | comparable toxicity as doxorubicin | – | – |
